Among the data in patent publication US11319298B2 (Merck Sharp & Dohme Corp., priority 2016, dated 2022) are EC50 values, retold here.

As usually defined, the EC50 is the concentration at which the effect is half-maximal. A low value points to greater potency.

The target in this assay is T1, human M4 muscarinic acetylcholine receptor (Homo sapiens, UniProt P08173).
T1 construct: expressed in transfected cells; host or cells: CHO-K1
T1 sequence (P08173 1-479): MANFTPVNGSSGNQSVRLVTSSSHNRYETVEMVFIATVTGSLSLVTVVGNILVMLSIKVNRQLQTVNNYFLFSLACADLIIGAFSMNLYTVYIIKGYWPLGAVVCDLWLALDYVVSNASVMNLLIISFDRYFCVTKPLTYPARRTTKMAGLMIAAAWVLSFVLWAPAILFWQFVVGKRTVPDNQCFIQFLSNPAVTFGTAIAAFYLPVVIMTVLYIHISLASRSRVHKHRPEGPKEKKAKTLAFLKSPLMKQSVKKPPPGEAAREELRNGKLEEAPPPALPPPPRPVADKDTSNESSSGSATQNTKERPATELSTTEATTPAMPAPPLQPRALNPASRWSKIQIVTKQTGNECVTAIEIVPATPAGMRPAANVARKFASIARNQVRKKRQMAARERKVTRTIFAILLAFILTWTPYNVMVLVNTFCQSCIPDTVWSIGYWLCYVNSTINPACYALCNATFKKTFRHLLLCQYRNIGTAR
Description: human FLIPR-based M4 PAM assay, CHO-K1 cells stably transfected with human M4 receptor and chimeric G-protein Gαqi5. It counts as cell-based. The settings on record: inflection point (IP) of dose response curve; acetylcholine added at 20% of maximum response; CHO-K1 human M4/Gαqi5, FLIPR Tetra. The method, then:
In a typical experiment the M4 muscarinic acetylcholine receptor modulating activity of the compounds of the present invention was determined in accordance with the following experimental method. CHO-K1 cells stably transfected with human M4 receptor and chimeric G-protein Gαqi5 (Coward P, et al., Analytical Biochemistry, 270:242-248 (1999)) are thawed from liquid N2 storage, resuspended in growth medium, plated in black, clear bottom 384 well plates, and incubated 16-20 hours at 37° C., 5% CO2. On the day of assay, growth medium is removed, the cells are washed 2 times with wash buffer, and cells are incubated in dye loading buffer at 37° C., 5% CO2 for ˜1 hour. Following dye loading the cell plates are placed in a FLIPR Tetra instrument and while monitoring dye fluorescence (excitation […]), 10 uL of test substance at increasing concentrations is added, and fluorescence values are recorded for 4 min. Next, 10 uL of acetylcholine is added (final concentration calculated so as to achieve 20% of the maximum acetycholine response), and the fluorescence reading is continued for 3.5 min. In some cases, a third addition of acetylcholine (final concentration calculated to achieve 70% of the maximal acetylcholine response) is performed. The resulting dose response curves are fit to a 4 parameter logistic equation and the final result is determined as the inflection point (IP) of the curve
CHO-K1 cells stably transfected with human M4 receptor and chimeric G-protein Gαqi5 are thawed from liquid N2 storage, resuspended in growth medium, plated in black, clear bottom 384 well plates, and incubated 16-20 hours at 37° C., 5% CO2.
On the day of assay, growth medium is removed, the cells are washed 2 times with wash buffer, and cells are incubated in dye loading buffer at 37° C., 5% CO2 for ˜1 h. Following dye loading the cell plates are placed in a FLIPR Tetra instrument and while monitoring dye fluorescence ([…]), 10 uL of test substance at increasing concentrations is added, and fluorescence values are recorded for 4 min. Next, 10 uL of acetylcholine is added (final concentration calculated so as to achieve 20% of the maximum acetycholine response), and the fluorescence reading is continued for 3.5 min. In some cases, a third addition of acetylcholine (final concentration calculated to achieve 70% of the maximal acetylcholine response) is performed.

With `Cc1c(Cl)nc(CO)nc1N1CCC(Oc2ccc3c(c2)NC(=O)CC3)CC1` [Example 30, 7-((1-(6-chloro-2-(hydroxymethyl)-5-methylpyrimidin-4-yl)piperidin-4-yl)oxy)-3,4-dihydroquinolin-2(1H)-one], the response was half-maximal at 140 nM (EC50). `Cc1c(Cl)nc(CO)nc1N1CCC(Oc2ccc3c(cnn3C)c2)CC1` [Example 31, (4-chloro-5-methyl-6-(4-((1-methyl-1H-indazol-5-yl)oxy)piperidin-1-yl)pyrimidin-2-yl)methanol] returned an EC50 of 157 nM.

`Cc1c(Cl)nc(CO)nc1N1CCC(Oc2ccc3c(c2)C(=O)N(C)C3)CC1` [Example 33, 6-((1-(6-chloro-2-(hydroxymethyl)-5-methypyrimidin-4-yl)piperidin-4-yl)oxy)-2-methylisoindolin-1-one] yielded an EC50 of 210 nM.

As to `COc1ccc(OC2CCN(c3ncc(C#N)c(Cl)c3C)CC2)cn1` [Example 34, 4-chloro-5-(4-((6-methoxypyridin-3-yl)oxy)piperidin-1-yl)-5-methylnicotinonitrile], the midpoint of the response, the EC50, lay at 217 nM. Next, `Cc1c(Cl)nc(CO)nc1N1CCC(Oc2ccc3c(c2)NCCC3)CC1` [Example 35, (4-chloro-5-methyl-6-(4-((1,2,3,4-tetrahydroquinolin-7-yl)oxy)piperidin-1-yl)pyrimidin-2-yl)methanol]: 220 nM. Consider `Cc1c(Cl)nc(CO)nc1N1CCC(Oc2ccc3c(c2)CCCC3=O)CC1` [Example 36, 6-((1-(6-chloro-2-(hydroxymethyl)-5-methylpyrimidin-4-yl)piperidin-4-yl)oxy)-3,4-dihydronaphthalen-1(2H)-one], for which it took 222 nM to reach a half-maximal effect (EC50). Regarding `COC(=O)c1cnc(N2CCC(Oc3ccc(OC)nc3)CC2)c(C)c1` [Example 37, methyl 6-(4-((6-methoxypyridin-3-yl)oxy)piperidin-1-yl)-5-methylnicotinate], the midpoint of the response, the EC50, lay at 225 nM. Next, `Cc1c(Cl)nc(CO)nc1N1CCC(Oc2ccc3c(c2)C(=O)CCC3)CC1` [Example 38, 7-((1-(6-chloro-2-(hydroxymethyl)-5-methylpyrimidin-4-yl)piperidin-4-yl)oxy)-3,4-dihydronaphthalen-1(2H)-one]: 252 nM; `Cc1cc(C(=O)NCc2ccncc2)nnc1N1CCC(Oc2cnn(CC3CC3)c2)CC1` [Example 39, 6-(4-((1-(cyclopropylmethyl)-1H-pyrazol-4-yl)oxy)piperidin-1-yl)-5-methyl-N-(pyridin-4-ylmethyl)pyridazine-3-carboxamide]: 278 nM. In turn, `COC(=O)c1cc(C)c(N2CC[C@H](Oc3ccc(OC)nc3)[C@H](F)C2)nn1` [Example 40, methyl 6-((3R,4S)-3-fluoro-4-((6-methoxypyridin-3-yl)oxy)piperidin-1-yl)-5-methylpyridazine-3-carboxylate] had an EC50 of 290 nM. With `Cc1c(Cl)nc(CO)nc1N1CCC(Oc2ccc3c(c2)C(=O)N(C)CC3)CC1` [Example 41, 7-((1-(6-chloro-2-(hydroxymethyl)-5-methylpyrimidin-4-yl)piperidin-4-yl)oxy)-2-methyl-3,4-dihdyroisoquinolin-1(2H)-one] the figure was 322 nM; with `Cc1c(Cl)nc(CO)nc1N1CCC(Oc2cccc(S(C)(=O)=O)c2)CC1` [Example 42, (4-chloro-5-methyl-6-(4-(3-(methylsulfonyl)phenoxy)piepridin-1-yl)pyrimidin-2-yl)methanol], 325 nM. With `Cc1c(Cl)nc(CO)nc1N1CC[C@@H](Oc2ccc3c(c2)C(=O)N(C)C3)[C@@H](F)C1` [Example 43, 6-(((3S,4R)-1-(6-chloro-2-(hydroxymethyl)-5-methylpyrimidin-4-yl)-3-fluoropiperidin-4-yl)oxy)-2-methylisoindolin-1-one] the figure was 378 nM; with `Cc1nc2cc(OC3CCN(c4nc(CO)nc(Cl)c4C)CC3)ccc2s1` [Example 44, 4(4-chloro-5-methyl-6-(4-((2-methylbenzo[d]thiazol-5-yl)oxy)piperidin-1-yl)pyrimidin-2-yl)methanol], 446 nM. With `COC(=O)c1cc(C)c(N2CCC(Oc3ccc(OC)nc3)CC2)nc1C#N` [Example 45, methyl 2-cyano-6-(4-((6-methoxypyridin-3-yl)oxy)piperidin-1-yl)-5-methylnicotinate] the figure was 493 nM; with `COC(=O)c1cc(C(=O)OC)c(N2CCC(Oc3ccc(OC)nc3)CC2)nc1C#N` [Example 46, dimethyl 2-cyano-6-(4-((6-methoxypyridin-3-yl)oxy)piperidin-1-yl)pyridine-3,5-dicarboxylate], 939 nM. The compound `COc1ccc(OC2CCN(c3nc(CO)nc(Cl)c3C)CC2)cc1` [Example 47, (4-chloro-6-(4-(4-methoxyphenoxy)piperidin-1-yl)-5-methypyrimidin-2-yl)methanol] registered an EC50 of 25 nM. With `COc1ccc(OC2CCN(c3nc(CO)nc(Cl)c3C)CC2)cc1C#N` [Example 48, 5-((1-(6-chloro-2-(hydroxymethyl)-5-methylpyrimidin-4-yl)piperidin-4-yl)oxy)-2-methoxybenzonitrile] the figure was 44 nM; with `COc1ccc(OC2CCN(c3ncnc(Cl)c3C)CC2)cn1` [Example 49, 4-chloro-6-(4-((6-methoxypyridin-3-yl)oxy)piperidin-1-yl)-5-methylpyrimidine], 44 nM; with `Cc1c(Cl)ncnc1N1CCC(Oc2cccc(C#N)c2)CC1` [Example 50, 3-((1-(6-chloro-5-methypyrimidin-4-yl)piperidin-4-yl)oxy)benzonitrile], 49 nM. Next, `Cc1c(Cl)nc(CO)nc1N1CCC(Oc2cccc(C#N)c2)CC1` [Example 51, 3-((1-(6-chloro-2-(hydroxymethyl)-5-methylpyrimidin-4-yl)piperidin-4-yl)oxy)benzonitrile]: 51 nM; `Cc1nc2ccc(O[C@@H]3CCN(c4nc(CO)nc(Cl)c4C)C[C@@H]3F)cc2o1` [Example 52, (4-chloro-6-((3S,4R)-3-fluoro-4-((2-methylbenzo[d]oxazol-6-yl)oxy)piperidin-1-yl)-5-methylpyrimidin-2-yl)methanol]: 53 nM; `COc1ncc(OC2CCN(c3nc(CO)nc(Cl)c3C)CC2)cc1F` [Example 54, (4-chloro-6-(4-((5-fluoro-6-methoxypyridin-3-yl)oxy)piperidin-1-yl)-5-methylpyrimidin-2-yl)methanol]: 55 nM. Next, `Cc1nc(Cl)c(C)c(N2CCC(Oc3cccc(C#N)c3)CC2)n1` [Example 55, 3-((1-(6-chloro-2,5-dimethylpyrimidin-4-yl)piperidin-4-yl)oxy)benzonitrile]: 59 nM; `Cc1nc(Cl)c(C)c(N2CCC(Oc3ccc4c(cnn4C)c3)CC2)n1` [Example 56, 5-((1-(6-chloro-2,5-dimethypyrimidin-4-yl)piperidin-4-yl)oxy)-1-methyl-1H-indazole]: 60 nM. For `COc1ccc(OC2CCN(c3ncnc(Cl)c3C)CC2)cc1` [Example 57, 4-chloro-6-(4-(4-methoxyphenoxy)piperidin-1-yl)-5-methypyrimidine], the midpoint of the response, the EC50, lay at 61 nM. As to `COC(=O)c1cc(C)c(N2CCC(Oc3cccc(C#N)c3)CC2)nn1` [Example 58, methyl 6-(4-(3-cyanophenoxy)piperidin-1-yl)-5-methylpyridazine-3-carboxylate], the EC50 was determined as 64 nM.

For `Cc1ncc(C)c(N2CCC(Oc3ccc4[nH]ncc4c3)CC2)n1` [Example 59, 5-((1-(2,5-dimethylpyrimidin-4-yl)piperidin-4-yl)oxy)-1H-indazole], the EC50 is 66 nM. `Cc1c(Cl)ncnc1N1CCC(Oc2ccc3c(cnn3C)c2)CC1` [Example 60, 5-((1-(6-chloro-5-methylpyrimidin-4-yl)piperidin-4-yl)oxy)-1-methyl-1H-indazole] came in with an EC50 of 67 nM.
